In publication PMC10049495, “Antitumor Activity of PEGylated and TEGylated Phenothiazine Derivatives: Structure–Activity Relationship” (International Journal of Molecular Sciences, 2023):
Where “and” joins values, the source holds several entries; their conditions need not be identical. Equal values may be shown once. Read-outs that look alike come from different tables or passages of the source.

How the values were obtained:
[1] = test system: HepG2; conditions: cited from earlier work
[2] = test system: MCF-7; conditions: cited from earlier work
[3] = test system: HeLa; conditions: cited from earlier work
[4] = test system: malignant melanoma (MeWo) cells; assay: Cytotoxicity MTS assay on MeWo; format: cell-based, human; conditions: for Selectivity index (SI): IC50 NHDF / IC50 MeWo; for IC50: MeWo, 48 h, MTS, tested 0.01-0.3 mM, read-out: Half maximal inhibition concentration (IC50)
Experimental: (§1) Cell culture: NHDF, HeLa, HOS, HepG2, MCF7, MeWo and CT-26 cells were cultivated in complete Eagle’s Minimal Essential Medium alpha (aMEM) containing a 1% Penicillin–Streptomycin–Amphotericin B mixture and a 10% fetal bovine serum under 5% CO2 humidified atmosphere at 37 °C. LN-229 cells were cultivated in DMEM with a 1% Penicillin–Streptomycin–Amphotericin B mixture and a 5% fetal bovine serum. U-118 cells were cultivated in DMEM with a 1% Penicillin–Streptomycin–Amphotericin B mixture and a 10% fetal bovine serum. StemPro™ Accutase™ Cell Dissociation Reagent was used for passaging MeWo and U-118 cells, and TrypLE Express was used for all other cell lines.
(§2) The working solutions were prepared by diluting the stock solutions with complete medium so that the final concentration of DMSO in the cell culture was 1%. The working solutions were used for incubation. Control cells were treated only with complete cell culture medium containing 1% DMSO.
(§3) Cytotoxicity MTS assay: In order to perform the MTS assay, cells were placed in culture-treated 96-well plates at densities of 5 × 10^3 cells/well (NHDF and CT-26), 7 × 10^3 cells/well (MCF7) and 10 × 10^3 cells/well (HOS, HeLa, HepG2, MeWo, LN-229, U-118) in 100 μL of a MEM medium/well and allowed to adhere for 24 h. After 24 h, the culture medium was replaced with the tested compound solutions at various concentrations, and the plates were incubated for another 48 h. Before the final reading, 20 μL CellTiter 96® Aqueous One Solution/well was added, and the plates were incubated for 1–4 h. Finally, the absorbance was recorded with a microplate reader at λ = 490 nm. The relative cell viability was expressed as a percentage of the viability of control, and the half maximal inhibitory concentration (IC50) was determined from the graphical representation of the cell viability vs. concentration. Graphical data were expressed as means ± standard error of the mean (S.E.M.). Statistical analysis was made with two-way ANOVA using Tukey’s multiple comparisons test. The difference was considered significant when p < 0.05. Data analysis was performed with GraphPad Prism software version 7.00 for Windows.

[5] = test system: osteosarcoma (HOS) cells; assay: Cytotoxicity MTS assay on HOS; format: cell-based, human; conditions: 48 h, tested 0.01-0.3 mM, read-out: Half maximal inhibition concentration (IC50)
Experimental: as §1, §2, §3

[6] = test system: cervical carcinoma (HeLa) cells; assay: Cytotoxicity MTS assay on HeLa; format: cell-based, human; conditions: for IC50: HeLa, 48 h, MTS, tested 0.01-0.3 mM, read-out: Half maximal inhibition concentration (IC50); for Selectivity index (SI): IC50 NHDF / IC50 HeLa
Experimental: as §1, §2, §3

[7] = test system: normal human dermal fibroblasts (NHDF); assay: Cytotoxicity MTS assay on normal fibroblasts; format: cell-based; conditions: 48 h, tested 0.01-0.3 mM, read-out: Half maximal inhibition concentration (IC50)
Experimental: as §1, §2, §3

[8] = test system: glioblastoma (LN229) cells; assay: Cytotoxicity MTS assay on LN229; format: cell-based, human; conditions: tested 0.01-0.3 mM, read-out: Half maximal inhibition concentration (IC50)
Experimental: as §1, §2, §3

[9] = test system: liver cancer (HepG2) cells; assay: Cytotoxicity MTS assay on HepG2; format: cell-based, human; conditions: for IC50: HepG2, 48 h, MTS, tested 0.01-0.3 mM, read-out: Half maximal inhibition concentration (IC50)
Experimental: as §1, §2, §3

[10] = test system: breast cancer (MCF7) cells; assay: Cytotoxicity MTS assay on MCF-7; format: cell-based, human; conditions: for Selectivity index (SI): IC50 NHDF / IC50 MCF7; for IC50: MCF-7, 48 h, MTS, tested 0.01-0.3 mM, read-out: Half maximal inhibition concentration (IC50)
Experimental: as §1, §2, §3

[11] = test system: glioblastoma cell line (U-118); assay: Cytotoxicity MTS assay on U-118; format: cell-based, human; conditions: for IC50: U-118, 48 h, MTS, tested 0.01-0.3 mM, read-out: Half maximal inhibition concentration (IC50)
Experimental: as §1, §2, §3

[12] = DPPH radical scavenging activity; conditions: for DPPH radical inhibition: 1 mM compound, ethanol, 1 h in the dark
From the text: In this light, the antioxidant activity of the studied phenothiazine derivatives was investigated using DPPH assay, measuring the dependence of the free radical inhibition on the concentration as highlighted by a decreasing of the absorbance of DPPH when the concentration of the compound is increasing. The results, expressed in percentage of inhibition, are represented in Figure 4.
Ex Vivo Radical Scavenging Activity: In order to evaluate antioxidant activity of the studied compounds, a bleaching method of the 1,1-diphenyl-2-picryl hydrazyl (DPPH) radical was used. Briefly, a stock solution of 2 mM of each compound in ethanol was prepared and then diluted to obtain 10 different concentrations from 1 mM to 0.0019 mM using a 96-well plate. The diluted solutions with different concentrations were mixed with an equal volume of ethanolic DPPH solution (0.05 mg/mL), and the mixtures were incubated in the dark at room temperature […] for 1 h. After incubation, the absorbance was read at 517 nm. Inhibition percentage was calculated using Equation (2), where Ac is the absorbance of the control sample (DPPH) and As is the absorbance of the mixtures. All measurements were made in triplicate. I % = (Ac-As)/Ac × 100 (2)

[13] = test system: mouse colon carcinoma cell line (CT26); assay: Cytotoxicity MTS assay on CT-26; format: cell-based; conditions: for IC50: CT-26, 48 h, MTS, tested 0.01-0.3 mM, read-out: Half maximal inhibition concentration (IC50); for Selectivity index (SI): IC50 NHDF / IC50 CT-26
Experimental: as §1, §2, §3

Molecule: COc1ccc(-n2cc(CN3c4ccccc4Sc4ccccc43)nn2)cc1 [10-((1-(4-Methoxyphenyl)-1H-1,2,3-triazol-4-yl)methyl)-10Hphenothiazine]
- IC50 [1]: 15 µM

Molecule: CCN1c2ccc(-c3ccccc3)cc2Sc2cc(-c3nnc4ccccn34)ccc21 [3-([1,2,4]Triazolo[4,3-a]pyridin-3-yl)-10-ethyl-7-phenyl-10H-phenothiazine]
- IC50 [2]: 10.2 µM

Molecule: Clc1ccc(-n2cc(CN3c4ccccc4Sc4ccccc43)nn2)cc1 [10-((1-(4-Chlorophenyl)-1H-1,2,3-triazol-4-yl)methyl)-10Hphenothiazine]
- IC50 [1]: 1.3 µM

Molecule: CC(=O)c1cc(C(=O)c2ccc3c(c2)Sc2ccccc2N3)c2cc(C)ccn12 [1-[(10H-Phenothiazin-3-yl)carbonyl]-3-acetyl-7-methylindolizine]
- IC50 [2]: > 10 µM

Molecule: OC(CNCCc1ccccc1)CN1c2ccccc2Sc2ccccc21 (stereo not drawn) [1-Phenethylamino-3-(10H-phenothiazin-10-yl)-2-propanol]
- IC50 [3]: 10 µM

Molecule: 4-((((10-(poly(ethylene glycol))-10H-phenothiazin-3-yl)methylene)amino)methyl) benzenesulfonamide [PPMA]
- Selectivity index (SI) [4]: 1.5
- IC50 [4]: 104 µM
- IC50 [5]: > 300 µM
- IC50 [6]: 116 µM
- Selectivity index (SI) [6]: 1.36
- IC50 [7]: 150 µM
- IC50 ([8]; LN229, 48 h): 239 µM
- IC50 [9]: 54 µM
- Selectivity index (SI) ([9]; IC50 NHDF / IC50 HepG2): 3
- Selectivity index (SI) [10]: 1.66
- IC50 [10]: 90 µM
- Selectivity index (SI) ([11]; IC50 NHDF / IC50 U118MG): 1.66
- IC50 [11]: 92 µM
- DPPH radical inhibition [12]: 44%
- IC50 [13]: 40 µM
- Selectivity index (SI) [13]: 3.75

Molecule: COc1ccn2c(C(C)=O)cc(C(=O)c3ccc4c(c3)Sc3ccccc3N4)c2c1 [1-[(10H-Phenothiazin-3-yl)carbonyl]-3-acetyl-7-methoxyindolizine]
- IC50 [2]: > 10 µM

Molecule: CC(=O)c1cc(C(=O)c2ccc3c(c2)Sc2ccccc2N3)c2c(C)cc(C)cn12 [1-[(10H-Phenothiazin-3-yl)carbonyl]-3-acetyl-6,8-dimethylindolizine]
- IC50 [2]: > 10 µM

Molecule: 4-((((10-(poly(ethylene glycol))-10H-phenothiazin-3-yl)methylene)amino)ethyl)benzenesulfonamide [PPEA]
- Selectivity index (SI) [4]: 1.66
- IC50 [4]: 68 µM
- IC50 [5]: > 300 µM
- IC50 [6]: 86 µM
- Selectivity index (SI) [6]: 1.25
- IC50 [7]: 108 µM
- IC50 ([8]; LN229, 48 h): 109 µM
- IC50 [9]: 40 µM
- Selectivity index (SI) ([9]; IC50 NHDF / IC50 HepG2): 2.5
- Selectivity index (SI) [10]: 1.11
- IC50 [10]: 90 µM
- IC50 [11]: 100 µM
- DPPH radical inhibition [12]: 47%
- IC50 [13]: 29 µM
- Selectivity index (SI) [13]: 3.44

Molecule: CN1CCN(CCCN2c3ccccc3Sc3ccc(C(F)(F)F)cc32)CC1 [Trifluoperazine]
- IC50 [2]: 11.3 µM

Molecule: 10-(poly(ethylene glycol))-10H-phenothiazine-3-carbaldehyde [PPF]
- IC50 [4]: 235 µM
- IC50 [5]: > 300 µM
- IC50 [6]: > 300 µM
- IC50 [7]: > 300 µM
- IC50 ([8]; LN229, 48 h): > 300 µM
- IC50 [9]: 100 µM and 106 µM
- IC50 [10]: 270 µM
- IC50 [11]: > 300 µM
- radical scavenging capacity (in words) ([12]; DPPH, 0.0019-1 mM): very low radical scavenging capacity
- IC50 [13]: 140 µM and 139 µM

Molecule: CCN1c2ccc(-c3ccc(OC)cc3)cc2Sc2cc(-c3nnc4ccccn34)ccc21 [3-([1,2,4]Triazolo[4,3-a]pyridin-3-yl)-10-ethyl-7-(4-methoxyphenyl)-10H-phenothiazine]
- IC50 [2]: 57.2 µM

Molecule: c1ccc2c(c1)Nc1ccccc1S2 [PTZ, phenothiazine]
- IC50 ([4]; Homo sapiens): > 300 µM
- IC50 ([5]; Homo sapiens): > 300 µM
- IC50 ([6]; Homo sapiens): 240 µM
- IC50 ([7]; Homo sapiens): 175 µM
- IC50 ([8]; Homo sapiens, LN-229, LN229, 48 h): > 300 µM
- Selectivity index (SI) [9]: 2.42
- IC50 ([9]; Homo sapiens): 73 µM
- IC50 ([10]; Homo sapiens, MCF7): 188 µM
- IC50 ([11]; Homo sapiens): > 300 µM
- DPPH radical inhibition [12]: 67%
- IC50 ([13]; Mus musculus, CT26): 186 µM

Molecule: FC(F)(F)c1ccc2c(c1)N(Cc1cn(-c3ccc(Cl)cc3)nn1)c1ccccc1S2 [10-{[1-(4-Chlorophenyl)-1H-1,2,3-triazol-4-yl]methyl}-2-{trifluoromethyl}-10H-phenothiazine]
- IC50 [2]: 29.6 µM

Molecule: COc1cc(Cn2cc(CN3c4ccccc4Sc4ccccc43)nn2)cc(OC)c1OC [10-{[1-(3,4,5-Trimethoxybenzyl)-1H-1,2,3-triazol-4-yl]methyl}-10H-phenothiazine]
- IC50 [2]: 0.8 µM
